Converted amounts (≈) assume the structure as drawn.
What follows are compounds tested on Mycobacterium tuberculosis (Mtb) H37Rv ATCC 27294 (assay: microbe, parasite or virus in culture). Settings: Mycobacterium tuberculosis, Table 1; read-out: Mtb MIC.
Format: cell-based
`CC(c1c(F)cccc1F)n1cc(C(=O)NCCF)c2ncccc21` (stereo not drawn) [Compound 1, 1-(1-(2,6-difluorophenyl)ethyl)-N-(2-fluoroethyl)-1H-pyrrolo[3,2-b]pyridine-3-carboxamide] gave an MIC of 12.5 µM (≈ 4.34 µg/mL).
For `COc1ccc(F)cc1Cn1cc(C(=O)NCC2CC2)c2nccc(C)c21` [Compound 2, N-(Cyclopropylmethyl)-1-(5-fluoro-2-methoxybenzyl)-7-methyl-1H-pyrrolo[3,2-b]pyridine-3-carboxamide], the MIC was 6.25 µM (≈ 2.3 µg/mL).
`COc1ccc(F)c(F)c1Cn1cc(C(=O)NCCF)c2ncccc21` [Compound 5, 1-(2,3-difluoro-6-methoxybenzyl)-N-(2-fluoroethyl)-1H-pyrrolo[3,2-b]pyridine-3-carboxamide] showed an MIC of under 0.66 µM.
`COCCNC(=O)c1cn(Cc2cc(F)cnc2OC)c2cccnc12` [Compound 6] showed an MIC of 1.3 µM (≈ 0.466 µg/mL).
For `COCCNC(=O)c1cn(Cc2ncnc(OC)c2C)c2cccnc12` [Compound 7, 1-((6-methoxy-5-methylpyrimidin-4-yl)methyl)-N-(2-methyl)-1H-pyrrolo[3,2-b]pyridine-3-carboxamide], the MIC was under 1.33 µM.
`COc1ncnc(Cn2cc(C(=O)NCCO)c3ncccc32)c1C` [Compound 9, N-(2-hydroxyethyl)-1-((6-methoxy-5-methylpyrimidin-4-yl)methyl)-1H-pyrrolo[3,2-b]pyridine-3-carboxamide] gave an MIC of 13.9 µM (≈ 4.75 µg/mL).
For `COc1ncnc(Cn2cc(C(=O)NCC3CC3)c3ncc(C)cc32)c1C` [Compound 10, N-(cyclopropylmethyl)-1-((6-methoxy-5-methylpyrimidin-4-yl)methyl)-6-methyl-1H-pyrrolo[3,2-b]pyridine-3-carboxamide], the MIC was 1.56 µM (≈ 0.57 µg/mL).
Work on `COCCNC(=O)c1cn(Cc2ncnc(OC)c2C)c2cc(C)cnc12` [Compound 11, 1-((6-methoxy-5-methylpyrimidin-4-yl)methyl)-N-(2-methoxyethyl)-6-methyl-1H-pyrrolo[3,2-b]pyridine-3-carboxamide] yielded an MIC of 0.781 µM (≈ 0.289 µg/mL).
`Cc1c(OCC(F)(F)F)ccnc1Cn1cc(C(=O)NCCF)c2ncccc21` [Compound 12, N-(2-fluoroethyl)-1-((3-methyl-4-(2,2,2-trifluoroethoxy)pyridin-2-yl)methyl)-1H-pyrrolo[3,2-b]pyridine-3-carboxamide] showed an MIC of 6.25 µM (≈ 2.56 µg/mL).
In the case of `COc1ncc(C(F)(F)F)cc1Cn1cc(C(=O)NCCF)c2ncccc21` [Compound 13, N-(2-fluoroethyl)-1-((2-methoxy-5-(trifluoromethyl)pyridin-3-yl)methyl)-1H-pyrrolo[3,2-b]pyridine-3-carboxamide], the MIC is reported as under 0.53 µM.
Compound `COc1ncc(C#N)cc1Cn1cc(C(=O)NCCF)c2ncccc21` [Compound 14, 1-((5-cyano-2-methoxypyridin-3-yl)methyl)-N-(2-fluoroethyl)-1H-pyrrolo[3,2-b]pyridine-3-carboxamide] has an MIC of 3.12 µM (≈ 1.1 µg/mL).
With `COc1ncc(F)cc1Cn1cc(C(=O)NCCF)c2ncc(C)cc21` [Compound 15, 1-((5-fluoro-2-methoxypyridin-3-yl)methyl)-N-(2-fluoroethyl)-6-methyl-1H-pyrrolo[3,2-b]pyridine-3-carboxamide] the MIC was 1.56 µM (≈ 0.562 µg/mL).
With `COc1ncnc(Cn2cc(C(=O)NC[C@H](C)F)c3ncc(C)cc32)c1C` [Compound 16, (S)—N-(2-fluoropropyl)-1-((6-methoxy-5-methylpyrimidin-4-yl)methyl)-6-methyl-1H-pyrrolo[3,2-b]pyridine-3-carboxamide] the MIC was 0.156 µM (≈ 0.0579 µg/mL).
For `COc1nc(C)c(F)cc1Cn1cc(C(=O)NCCF)c2ncccc21` [Compound 18, 1-((5-fluoro-2-methoxy-6-methylpyridin-3-yl)methyl)-N-(2-fluoroethyl)-1H-pyrrolo[3,2-b]pyridine-3-carboxamide], the MIC was 0.781 µM (≈ 0.281 µg/mL).
In the case of `COc1ncnc(Cn2cc(C(=O)NCCF)c3ncc(F)cc32)c1C` [Compound 19, 6-fluoro-N-(2-fluoroethyl)-1-((6-methoxy-5-methylpyrimidin-4-yl)methyl)-1H-pyrrolo[3,2-b]pyridine-3-carboxamide], the MIC is reported as 6.25 µM (≈ 2.26 µg/mL).
`COc1ncnc(Cn2cc(C(=O)NCCF)c3ncc(Br)cc32)c1C` [Compound 20, 6-bromo-N-(2-fluoroethyl)-1-((6-methoxy-5-methylpyrimidin-4-yl)methyl)-1H-pyrrolo[3,2-b]pyridine-3-carboxamide] was tested, and the MIC was 0.781 µM (≈ 0.33 µg/mL).
With `Cc1cnc2c(C(=O)NCCF)cn(Cc3nccc(OCC(F)(F)F)c3C)c2c1` [Compound 21, N-(2-fluoroethyl)-6-methyl-1-((3-methyl-4-(2,2,2-trifluoroethoxy)pyridin-2-yl)methyl)-1H-pyrrolo[3,2-b]pyridine-3-carboxamide] the MIC was 1.56 µM (≈ 0.662 µg/mL).
`COc1ncc(C(F)(F)F)cc1Cn1cc(C(=O)NC[C@H](C)F)c2ncc(C)cc21` [Compound 22, (S)—N-(2-fluoropropyl)-1-((2-methoxy-5-(trifluoromethyl)pyridin-3-yl)methyl)-6-methyl-1H-pyrrolo[3,2-b]pyridine-3-carboxamide] showed an MIC of under 0.391 µM.
`COc1ncnc(Cn2cc(C(=O)NCCOC(F)(F)F)c3ncccc32)c1C` [Compound 23, 1-((6-methoxy-5-methylpyrimidin-4-yl)methyl)-N-(2-(trifluoromethoxy)ethyl)-1H-pyrrolo[3,2-b]pyridine-3-carboxamide] gave an MIC of 3.12 µM (≈ 1.28 µg/mL).
`COc1ncc(F)cc1Cn1cc(C(=O)NC[C@H](C)F)c2ncc(C)cc21` [Compound 24, (S)-1-((5-fluoro-2-methoxypyridin-3-yl)methyl)-N-(2-fluoropropyl)-6-methyl-1H-pyrrolo[3,2-b]pyridine-3-carboxamide] showed an MIC of under 0.391 µM.
In the case of `COc1ncnc(Cn2cc(NC(=O)CC3CC3)c3ncccc32)c1C` [Compound 25, 2-cyclopropyl-N-(1-((6-methoxy-5-methylpyrimidin-4-yl)methyl)-1H-pyrrolo[3,2-b]pyridin-3-yl)acetamide], the MIC is reported as 25 µM (≈ 8.79 µg/mL).
Work on `Cc1cnc2c(C(=O)NCCF)cn(Cc3cc(F)c(C)nc3C)c2c1` [Compound 26, 1-((5-fluoro-2,6-dimethylpyridin-3-yl)methyl)-N-(2-fluoroethyl)-6-methyl-1H-pyrrolo[3,2-b]pyridine-3-carboxamide] yielded an MIC of 3.12 µM (≈ 1.12 µg/mL).
`Cc1cnc2c(C(=O)NCCO)cn(Cc3nccc(OCC(F)(F)F)c3C)c2c1` [Compound 27, N-(2-hydroxyethyl)-6-methyl-1-((3-methyl-4-(2,2,2-trifluoroethoxy)pyridin-2-yl)methyl)-1H-pyrrolo[3,2-b]pyridine-3-carboxamide] showed an MIC of 3.12 µM (≈ 1.32 µg/mL).
In the case of `COc1ncnc(Cn2cc(C(=O)NC[C@@H](C)O)c3ncc(C)cc32)c1C` [Compound 28, (R)—N-(2-hydroxypropyl)-1-((6-methoxy-5-methylpyrimidin-4-yl)methyl)-6-methyl-1H-pyrrolo[3,2-b]pyridine-3-carboxamide], the MIC is reported as 6.25 µM (≈ 2.31 µg/mL).
`Cc1cnc2c(C(=O)NCCF)cn(Cc3ncnc(N(C)C)c3C)c2c1` [Compound 29, 1-((6-(dimethylamino)-5-methylpyrimidin-4-yl)methyl)-N-(2-fluoroethyl)-6-methyl-1H-pyrrolo[3,2-b]pyridine-3-carboxamide] gave an MIC of 1.56 µM (≈ 0.578 µg/mL).
`Cc1cnc2c(C(=O)NCCO)cn(Cc3ncnc(OC(F)F)c3C)c2c1` [Compound 35, 1-((6-(Difluoromethoxy)-5-methylpyrimidin-4-yl)methyl)-N-(2-hydroxyethyl)-6-methyl-1H-pyrrolo[3,2-b]pyridine-3-carboxamide] gave an MIC of under 0.39 µM.
Work on `COc1cnc2c(C(=O)NCCF)cn(Cc3ncnc(OC)c3C)c2c1` [Compound 36, N-(2-fluoroethyl)-6-methoxy-1-((6-methoxy-5-methylpyrimidin-4-yl)methyl)-1H-pyrrolo[3,2-b]pyridine-3-carboxamide] yielded an MIC of under 0.39 µM.
Work on `COc1cnc2c(C(=O)NCC(F)F)cn(Cc3ncnc(OC)c3C)c2c1` [Compound 37, N-(2,2-difluoroethyl)-6-methoxy-1-((6-methoxy-5-methylpyrimidin-4-yl)methyl)-1H-pyrrolo[3,2-b]pyridine-3-carboxamide] yielded an MIC of under 0.39 µM.
For `COc1cnc2c(C(=O)NCCO)cn(Cc3ncnc(OC)c3C)c2c1` [Compound 38, N-(2-hydroxyethyl)-6-methoxy-1-((6-methoxy-5-methylpyrimidin-4-yl)methyl)-1H-pyrrolo[3,2-b]pyridine-3-carboxamide], the MIC was 0.78 µM (≈ 0.29 µg/mL).
`COc1cnc2c(C(=O)NCCF)cn(Cc3ncnc(N(C)C)c3C)c2c1` [Compound 39, 1-((6-(Dimethylamino)-5-methylpyrimidin-4-yl)methyl)-N-(2-fluoroethyl)-6-methoxy-1H-pyrrolo[3,2-b]pyridine-3-carboxamide] was tested, and the MIC was under 0.39 µM.
`COc1cnc2c(C(=O)NCC(F)F)cn(Cc3ncnc(N(C)C)c3C)c2c1` [Compound 40, N-(2,2-Difluoroethyl)-1-((6-(dimethylamino)-5-methylpyrimidin-4-yl)methyl)-6-methoxy-1H-pyrrolo[3,2-b]pyridine-3-carboxamide] was tested, and the MIC was under 0.39 µM.
`COc1cnc2c(C(=O)NCCO)cn(Cc3ncnc(N(C)C)c3C)c2c1` [Compound 41, 1-((6-(Dimethylamino)-5-methylpyrimidin-4-yl)methyl)-N-(2-hydroxyethyl)-6-methoxy-1H-pyrrolo[3,2-b]pyridine-3-carboxamide] gave an MIC of under 0.39 µM.
For `COc1cnc2c(C(=O)NCCF)cn(Cc3ncnc(OC(F)F)c3C)c2c1` [Compound 42, 1-((6-(Difluoromethoxy)-5-methylpyrimidin-4-yl)methyl)-N-(2-fluoroethyl)-6-methoxy-1H-pyrrolo[3,2-b]pyridine-3-carboxamide], the MIC was under 0.39 µM.
`COc1cnc2c(C(=O)NCC(F)F)cn(Cc3ncnc(OC(F)F)c3C)c2c1` [Compound 43, N-(2,2-Difluoroethyl)-1-((6-(difluoromethoxy)-5-methylpyrimidin-4-yl)methyl)-6-methoxy-1H-pyrrolo[3,2-b]pyridine-3-carboxamide] was tested, and the MIC was under 0.39 µM.
Work on `COc1cnc2c(C(=O)NCCO)cn(Cc3ncnc(OC(F)F)c3C)c2c1` [Compound 44, 1-((6-(difluoromethoxy)-5-methylpyrimidin-4-yl)methyl)-N-(2-hydroxyethyl)-6-methoxy-1H-pyrrolo[3,2-b]pyridine-3-carboxamide] yielded an MIC of 0.78 µM (≈ 0.318 µg/mL).

Same assay, conditions: Table 1; read-out: Mtb MIC
Compound `COc1ncnc(Cn2cc(C(=O)NCC(F)F)c3ncc(C)cc32)c1C` [Compound 33, N-(2,2-difluoroethyl)-1-((6-methoxy-5-methylpyrimidin-4-yl)methyl)-6-methyl-1H-pyrrolo[3,2-b]pyridine-3-carboxamide] has an MIC of under 0.39 µM.

— patent publication US9163020B2, “Azaindole compounds, synthesis thereof, and methods of using the same” (Global Alliance for TB Drug Development, priority 2013, dated 2015)
